Test results reported in patent publication US7396854B2, “Use of serotonergic compound for a method of treatment of hot flushes in post-menopausal women” (N.V. Organon, priority 2001, dated 2008).
Structures can show the parent of a compound that is named as a salt.

System: Male rats (HSD/Cpb:WU)
Assay: telemetric body temperature measurements in freely moving rats (rise in core body temperature after manipulation for injection)
Assay type: in vivo
Details: subcutaneous, 22 mg/kg
Source text: Male rats (HSD/Cpb:WU, Harlan Sprague Dawley, Zeist, The Netherlands), weighing 350-480 g, were used. The rats were implanted with a Physio Tel TA11CTA-F40 Implant (Data Sciences International) under pentobarbital anesthesia. After surgery the rats were housed individually in a type II clear MACROLON™ cage (23×17××14 cm). The cages were placed on receivers (RLA 1020). After a recovery and adaptation period of at least one week the rats were used for the experiments. On the experimental day, body temperature, heart rate and locomotor activity was monitored for 30 minutes prior to injection of vehicle or test compound. This period provides a baseline core body temperature relative to which the changes of body temperature after the manipulation of the rats for injection are expressed. After 30 minutes the rats were injected subcutaneously with vehicle or test compound and the same parameters were measured for at least 60 minutes. Immediately after injection the core body temperature rises. Compounds inhibiting this rise in temperature reveal an inhibiting effect on acute body heat production. Results obtained with other parameters, such as the effect on heart rate and on locomotor activity are not presented here. 6 animals were used for measurement of each dose of compound
Data were analyzed using Dataquest IV Data Acquisition System Ver 2.2.
Compounds were dissolved in NaCl 0.9% (m/v) in water as vehicle for subcutaneous injection.

How did the “absolute mean increments in body temperature relative to baseline during 30 minutes prior to manipulation” value (5 minutes after injection) turn out when `CNCCC(Oc1ccc(C(F)(F)F)cc1)c1ccccc1` (stereo not drawn) [Fluoxetine, Fluoxetine HCl, reference compound] was run?
The value was 0.28 °C.

What about the “absolute mean increments in body temperature relative to baseline during 30 minutes prior to manipulation” value (10 minutes after injection) of the same compound?
The value was 0.59 °C.

And the “absolute mean increments in body temperature relative to baseline during 30 minutes prior to manipulation” value (15 minutes after injection)?
The value was 0.71 °C.

And the “absolute mean increments in body temperature relative to baseline during 30 minutes prior to manipulation” value (20 minutes after injection)?
Its value is 0.72 °C.

And the “absolute mean increments in body temperature relative to baseline during 30 minutes prior to manipulation” value (25 minutes after injection)?
The value was 0.66 °C.

What about the “absolute mean increments in body temperature relative to baseline during 30 minutes prior to manipulation” value (30 minutes after injection) of the same compound?
The value was 0.56 °C.

And the “absolute mean increments in body temperature relative to baseline during 30 minutes prior to manipulation” value (35 minutes after injection)?
Its value is 0.55 °C.

What about the “absolute mean increments in body temperature relative to baseline during 30 minutes prior to manipulation” value (40 minutes after injection) of the same compound?
Its value is 0.45 °C.

What about the “absolute mean increments in body temperature relative to baseline during 30 minutes prior to manipulation” value (45 minutes after injection) of the same compound?
The value was 0.38 °C.

What about the “absolute mean increments in body temperature relative to baseline during 30 minutes prior to manipulation” value (50 minutes after injection) of the same compound?
Its value is 0.27 °C.

And the “absolute mean increments in body temperature relative to baseline during 30 minutes prior to manipulation” value (55 minutes after injection)?
The value was 0.29 °C.

And the “absolute mean increments in body temperature relative to baseline during 30 minutes prior to manipulation” value (60 minutes after injection)?
Its value is 0.85 °C.
